The results in this text go back to patent US10967000B2, “Cell-penetrating peptide, conjugate comprising same and composition comprising same” (GemVax & KAEL Co., Ltd., priority 2012, dated 2021).

No end group written: not given here. *: point of attachment. FITC = O=C1OC2(c3ccc(O)cc3Oc3cc(O)ccc32)c2ccc(NC(=S)*)cc21

The test system of one assay is CHO and HepG2 cells. In words: Uptake analysis of pep1-FITC in vitro by flow cytometry (primary experiment). The assay is classed as cell-based. As to the method:
Flow cytometry and Confocal microscopy analysis were performed to compare the degree of cellular uptake among differentcell lines treated with pep1 (SEQ ID NO: 1) and the previously known PTD, TAT ([…]) (SEQ ID NO: 10) of HIV.
(§1) Cells were cultured at 37° C., 5% CO2 incubator and grown to 90˜100% confluence. The confluence. The medium was removed and washed with PBS, 1 mL of OPTI-MEM was added to each well and cultured at 37° C., 5% CO2 incubator for an hour for cell starvation. After washing with OPTI-MEM once, cells were treated with peptide in OPTI-MEM (concentration of […]) and FITC (concentration of 10 μM), cultured at 37° C., 5% CO2 incubator. After removing the medium, cells were washed with 1×PBS three times and harvested using Trysin/EDTA. The cellular uptake of FITC and the rest of FITC-conjugated peptide was compared and analyzed with untreated cell cells as a control.

The next assay concerns Huh7 cell line. In words: Flow cytometry of cell penetrating property in Huh7 cell line. The format is cell-based, human. As to the method:
(§2) The cell line was divided in a 6-well plate and cultured in a medium containing 10% fetal bovine serum (Invitrogen, USA), 100 μg/ml penicillin, 100 units/ml streptomycin at 37° C., 5% CO2 incubator for 12 hours. After washing the cell line with PBS, starvation was induced in a Minimum Essential Medium for an hour. 20 uM of each carrier peptide was treated and cultured at 37° C. for an hour. After repeating the step of washing the cells with PBS for three times, Trypsin-EDTA was treated form 10 mins at 37° C. to separate the carrier peptide on the outside of the cell. cells were collected with refrigerated PBS and centrifugation was performed to repeat the step of washing the cells for three times. After then, the cells were suspended in 0.5 ml of PBS containing 4% Paraformaldehyde and fluorescence of the cells was analyzed using FACS Calibur (Becton Dickinson). The cellular uptake aspect of control and various peptides combined with FITC was compared and analyzed by MFI (Mean Fluorescence Intensity).
To investigate cell penetrating property of PEP1, flow cytometry was performed in Huh7 cell line treated with PEP1. The analytical methods used were same as described in above (1) HeLa cell line analysis. […] (FIG. 9 and FIG. 10)
For orientation: A flow cytometer gives signals particle by particle.

Another assay concerns human T lymphocyte. In words: FACS of cell penetrating property in human T lymphocyte. The assay is classed as cell-based. As to the method: as §2
To investigate cell penetrating property of PEP1, the peptide was treated in human T lymphocyte, and FACS (Fluorescence-activated sell sorting) was performed as flow cytometry analysis. The analytical method used was same as described in above (1) HeLa cell line analysis. […] (FIG. 11 and FIG. 12)

A further assay relates to Huh7, bmDC, CHO, COS7. Description: Flow cytometry depending on concentration in various cell lines. The format is cell-based. As to the method:
as §1
(§3) Cell penetrating property of PEP1 was investigated by treating PEP1 with various cell various cell lines depending on concentrations and time. Specific analytical methods followed the methods described in Example 2. […] In the case of HepG2 cell line, cell penetrating property of TAT was increased whereas that of PEP1 was decreased at a concentration of 50 μM. […] When observing cell penetrating property of the peptide depending on time, the cell penetrating property was increased in Huh7, MCF7 and HeLA cell lines. Especially, in MCH7 cell line when 5 μM of the peptide was treated, cell penetrating property was increased 10 times higher in all time (FIG. 24 to FIG. 26)

Another assay deals with HepG2 cell line. Description: Flow cytometry depending on concentration, HepG2. The format is cell-based, human. The conditions noted are these: HepG2, 50 μM. As to the method:
as §1, §3

A further assay deals with MCF7 cell line. In words: Flow cytometry depending on concentration and time, MCF7. The assay is classed as cell-based, human. As to the method: as §1, §3
Assay [1] deals with Huh7, MCF7 and HeLA cell lines. In words: Flow cytometry depending on time. The format is cell-based, human. On the procedure:
as §1, §3

Assay [2] relates to THP1 (Human mononuclear cell line). In words: Flow cytometry of cell penetrating property, THP1. The assay is classed as cell-based. An excerpt:
(§4) Jurkat (Human T cell line), THP1 (Human mononuclear cell line), Raji (Human B cell line), K562 cell line (Human Leukemia cell line) were used as enriched cell line to treat the peptide depending on concentrations, temperature and time and to analyze the cell penetrating property of the peptide. […] There was no difference in cell penetrating property of PEP1 in all cell lines depending on temperature.

In another assay the test system is Jurkat, THP1, Raji, K562. Description: Cell penetrating property depending on concentration, temperature and time in enriched cell lines. The format is cell-based, human.
Source text: as §4

For assay [3], the system named is human PBMC. In words: Flow cytometry of cell penetrating property in human PBMC. The assay is classed as cell-based. As to the method:
PBMC (peripheral blood mononuclear cell) and lymphocytes were prepared from the human blood samples (50 ml) collected from healthy subjects using Biocoll Separating Solution (Biochrom AG, Berlin, Germany).
PBMC separated from human blood was used to treat the peptide depending on concentrations, temperature and time and to analyze the cell penetrating property of the peptide. […] Depending on concentrations, cell penetrating property of PEP1 was increased in both lymphocytes and the monocytes. […] (FIG. 32 to FIG. 34)

Assay [4] relates to human PBMC. Description: Flow cytometry after chemical treatment, human PBMC. The conditions noted are these: whole PBMC, chemical treatment an hour before peptide. The assay is classed as cell-based. As to the method: With PBMC separated from human blood, chemical treatment utilization analysis was performed to verify a mechanism of cell penetration. Concentration of chemical treatment was decided based on the data reported in JBC(278(36), 34141-34149 in […]. OPTI-MEM was treated with chemical treatment and washed with PBS an hour before PEP1 peptide was treated and flow cytometry analysis was performed.
(§5) To compare and analyze the cell penetrating property of the peptide using various various antibodies, HSP70, enolase, GAPDH (santacruz), HSP90 antibodies were used. Cells were treated with heparin (10 μg/ml), methyl beta cyclodextrin (5 mM), nocodazole (20 μM), Brefeldin A (10 μM), cytochalasin F (5 μM) or choloroqune (100 μM) an hour before cells were cultured by the peptide. After then, cells were washed with PBS, peptide treatment was performed by flow cytometry analysis as the same method described in Example 2. Anti-HSP70, anti-Enolase and anti-GAPDH antibodies were purchased from Santacruz and anti-HSP90 antibody as purchased from Abcam. To analyze the role of each protein in penetration into cells, cells were treated with antibodies corresponding to the proteins with the same method.

In a further assay the test system is Jurkat cell line. Description: Flow cytometry after chemical treatment, Jurkat. To be noted: all of the chemical treatment. The format is cell-based, human.
The test system of the next assay is hPBMC. In words: Cell penetrating property after treatment with various antibodies. The format is cell-based, human. As to the method: The fact that HSP70/90 plays an important role in cell penetrating property of Pep1 was analyzed using HSP70/90 antibody. Antibodies of GAPDH, HSP70, HSP90 and enolase were treated in PBMC separated from human blood, lymphocyte, and Jurkat to perform flow cytometry. Antibodies of GAPDH and enolase were used as control.
as §5

A further assay deals with Raji (Human B cell line). In words: Flow cytometry of cell penetrating property, Raji. The assay is classed as cell-based.
Source text: as §4

Assay [5] has as its system K562 cell line (Human Leukemia cell line). Description: Flow cytometry of cell penetrating property, K562. The format is cell-based.
Source text: as §4

The next assay relates to Huh7, HepG2, CHO, bmDC. Description: Flow cytometry and confocal analysis depending on location of FITC. The assay is classed as cell-based. The conditions noted are these: fluorescence microscope. On the procedure: as §2
To investigate cell penetrating property of PEP1 in various cell lines, flow cytometry and Confocal microscope analysis were performed using a conjugate of PEP1 combined with FITC at N, and C-terminal of the peptide. The analytical method used was same as described in above (1) HeLa cell line analysis. The cell lines used were Huh7, HepG2, CHO, bmDC. […] (FIG. 14)

The subject of another assay is luciferase in Huh7 cells. In words: Luciferase assay with siRNA-CPP conjugates, Huh7. The assay is classed as cell-based, human. The conditions noted are these: Huh cell line, siRNA 400 nM, 16 hours. As to the method:
Huh7 (human hepatocellular carcinoma) cells obtained from ATCC was cultured in a RPMI 1640 medium (Hyclon) containing 10% fetal bovine serum (Invitrogen Co., Carlsbad, Calif., USA), […] L-glutamine, 100 ug/ml penicillin and 100 units/ml of streptomycin at 37° C., 5% CO2 incubator.
2×10^5 of Huh7 cells were inserted into each well of a 24 well plate and were grown. Transient transfection on the cells was performed using 2 ug of luciferase objective DNA and lipofectamin 2000 (Invitrogen Co., Carlsbad, Calif., USA). After 4 hours, lipofectamin 2000 was perfectly washed with PBS several times; siRNA of final concentration of […] was treated in 500 ul of Opti-MEM (Invitrogen Co., Carlsbad, Calif., USA) and was reacted at 37° C. incubator for 16 hours. To terminate the reaction, cells were washed with PBS and proteins were lysed using Reporter Lysis Buffer (Progema Co., Madison, Wis., USA) solution and the luminescence was measured by luminometer (Turner BioSystem, Sunnyvale, Calif., USA) using luciferase reagent (Promega Co., Madison, Wis., USA). Efficacy of siRNA was corrected by Bradford protein assay.

In the case of “EARPALLTSRLRFIPK (listed as Homo sapiens) [pep1]”, the “cell penetrating ability depending on position of FITC” value in the assay on CHO and HepG2 cells was “best when FITC was conjugated with lysine residue in C terminal”. Besides, in the assay with CHO and HepG2 cells (FITC-labelled peptides), the “cell penetrating ability compared with TAT” value is reported as “better cell penetrating ability than TAT”. In addition, in the assay on Huh7 cell line, the “cell penetrating property compared with TAT and control” value is on record as “lower than that of TAT but higher than that of control”. For the same substance, in the assay on human T lymphocyte, the “cell penetrating property, times higher than HIV derived TAT” value came out at 6 times. For the same substance, the “cell penetrating property, times higher than control FITC” value in the assay on human T lymphocyte stood at 25 times. Besides, the “cell penetrating property depending on concentrations” value in the assay on Huh7, bmDC, CHO, COS7 was “tendency to increase”; with Jurkat, THP1, Raji, K562 (all cell lines) it was “tendency to increase”; in the assay with human PBMC [3] (lymphocytes and monocytes), “increased”. Further, the “cell penetrating property at a concentration of 50 μM” value with HepG2 cell line was “decreased”. The results for the “cell penetrating property, times higher than TAT” value in the assay on MCF7 cell line (MCF cell line) and in the assay on human PBMC [3] (whole PBMC) were 4 times and 1.4 times, respectively. Also, the “cell penetrating property, times higher in all time” value with MCF7 cell line (MCH7 cell line, 5 μM of the peptide, comparator not stated) is 10 times. The “cell penetrating property depending on time” value in assay [1] is given as “increased”; in assay [2] it was “decreased over time”; with human PBMC [3] (lymphocytes and monocytes) it was “tendency to increase”. Further, in the assay on Jurkat, THP1, Raji, K562 (all cell lines), the “cell penetrating property depending on temperature” value is “no difference”. Besides, the “increase of cell penetrating property depending on time” value with Jurkat, THP1, Raji, K562 (cell lines other than THP1) is on record as “more than 3 times”. Also, the “cell penetrating property, increase (times)” value in the assay on human PBMC [3] (lymphocytes) is recorded as 1.8 times. The “increase of cell penetrating property compared to TAT” value in the assay on human PBMC [3] (monocytes, 5 hours) is reported as “more than 20%”. Besides, the “cell penetrating property depending on concentrations and time” value with human PBMC [3] (whole PBMC) is reported as “increased”. The “effect of chemical treatment (MatCD and others) on cell penetrating property” value in the assay on human PBMC [4] is recorded as “tend to be suppressed”. Moreover, in the assay with Jurkat cell line, the “effect of chemical treatment on cell penetrating property” value is “tendency to suppress”. Further, in the assay with hPBMC, the “absorption after treatment with HSP70 and HSP90 specific antibodies” value is “remarkably reduced”.
Turning to YGRKKRRQRRR [TAT, reference compound], in the assay with Huh7, bmDC, CHO, COS7, the “cell penetrating property depending on concentrations” value is recorded as “tendency to increase”. In addition, the “cell penetrating property at a concentration of 50 μM” value in the assay with HepG2 cell line was “increased”. In addition, the “cell penetrating property, TAT compared with PEP1” value (with Raji (Human B cell line); in [5]) was “higher cell penetrating property than PEP1” each time. Further, in the assay on human PBMC [3] (whole PBMC), the “cell penetrating property depending on concentrations and time” value is given as “increased”. In addition, the “effect of chemical treatment (MatCD and others) on cell penetrating property” value in the assay on human PBMC [4] is recorded as “increased”. Besides, the “effect of chemical treatment on cell penetrating property” value in the assay on Jurkat cell line was “no effect”. For the same substance, in the assay with hPBMC, the “absorption after treatment with HSP70 and HSP90 specific antibodies” value is recorded as “not affected”.
With “pep1-FITC: pep1 labeled with FITC at the C-terminal (lysine) (EARPALLTSRLRFIPK(FITC); listed as Homo sapiens)”, in the assay with Huh7, HepG2, CHO, bmDC, the “penetration into the cytoplasm, C-terminal vs N-terminal FITC” value was “higher cell penetrating property to penetrate into the cytoplasm than PEP1 combined with FITC at N-terminal”. In the assay with hPBMC, the “absorption after treatment with HSP70 and HSP90 specific antibodies” value is given as “remarkably reduced”. In addition, the “absorption after treatment with GAPDH or Enolase specific antibodies” value with hPBMC (control antibodies) is “no effect”.
On to “siLuc conjugation with Mercaptoacetyl-Ahx-LRALPKRPFISRLTEA [siLuc-scrambled pep1]”, for which, in the assay with luciferase in Huh7 cells, the “reduction of luciferase activation compared with the same peptide in siRNA combined with control” value (from here on “reduction of luciferase activation”) is recorded as “no significant difference”.
For the substance “siLuc conjugation with Mercaptoacetyl-Ahx-RQIKIWFQNRRMKWKK [siLuc-Penetratin]”, the “reduction of luciferase activation” value in the assay on luciferase in Huh7 cells was “approx. 28%”.
“siLuc conjugation with Mercaptoacetyl-Ahx-YGRKKRRQRRR (not fully specified (N-terminus); printed as Mercaptoacetyl-Ahx-YGRKKRRQRRR; also: conjugated to luciferase siRNA; UniProt P04608 47-57, looked up, fragment) [siLuc-Tat(47-57)]”: in the assay on luciferase in Huh7 cells, the “reduction of luciferase activation” value is “no significant difference”.
